According to the NIST ThermoML archive (doi:10.1021/je800505y):
± gives the expanded uncertainty stated by the source.

Details: Liquid, Ebulliometric method (Recirculating still)

FCC(F)(F)F [1,1,1,2-tetrafluoroethane]
vapor or sublimation pressure (253.15 K): 131 ± 10 kPa | vapor or sublimation pressure (263.15 K): 203 ± 10 kPa | vapor or sublimation pressure (278.15 K): 353 ± 10 kPa | vapor or sublimation pressure (292.92 K): 571 ± 10 kPa

CCF [fluoroethane]
vapor or sublimation pressure (253.15 K): 214 ± 10 kPa | vapor or sublimation pressure (263.15 K): 311 ± 10 kPa | vapor or sublimation pressure (278.15 K): 517 ± 10 kPa | vapor or sublimation pressure (292.92 K): 802 ± 10 kPa
